{"source": "paper PMC11292626", "about": "“5-Fluoroindole Reduces the Bacterial Burden in a Murine Model of Mycobacterium tuberculosis Infection” (ACS Omega, 2024)", "key": {"[1]": {"assay": "Cellular viability (MTT and neutral red uptake), HepG2", "format": "cell-based", "details": "human, HepG2 cells; 72 h of exposure; MTT and neutral red assays", "protocol": "(§1) To assess the selectivity and potential toxicity of 5-FI, the effects on the viability of both HepG2 and Vero mammalian cell lines were evaluated. Cell viability was measured after 72 h of incubation with concentrations of 2, 5, and 20 μM of the compound. […] Two methods were used to assess the cell integrity: the MTT assay, which evaluates mitochondrial viability, and the neutral red assay, which assesses lysosomal functionality.\n(§2) To determine the cellular viability, the cells were incubated with the 5-fluoro-1H-indole compound with 3-(4,5-dimethylthiazol-2-yl)-2,5-diphenyl-2H-tetrazolium bromide (MTT)[29] and neutral red uptake (NRU)[30] methods. […] The formed formazan crystals were dissolved with 100 μL of DMSO, and the absorbance of this solution was measured at 595 nm using an EZ Read 400 microplate reader (Biochrom, Holliston, MA, USA). The absorbance of the formazan crystals, diluted with DMSO, was directly proportional to the number of live cells with active mitochondria, corresponding to their viability. The mean value of absorbance of control wells was taken as 100% viability, and the values of treated cells were calculated as the percentage of vehicle control containing 0.5% DMSO. […]"}, "[2]": {"test_system": "HepG2 cells", "assay": "Cellular viability (MTT and neutral red uptake), HepG2", "format": "cell-based", "details": "2, 5 and 20 μM, 72 h; MTT and neutral red; listed as 5-FI", "protocol": "as §1, §2"}, "[3]": {"test_system": "Mycobacterium tuberculosis H37Rv Strain", "assay": "MIC by resazurin reduction microplate assay (REMA), H37Rv", "format": "cell-based", "details": "Mtb H37Rv, REMA"}, "[4]": {"assay": "Metabolic stability in rat liver microsomes", "format": "in vitro ADME", "protocol": "The compound was incubated at 37 °C in the concentration of 20 μM with rat liver microsomal fractions in PBS solution at pH 7.4 solution. As previously described,[31] rat liver microsomal fractions were seeded by centrifugation at 9.000 × g. To the supernatant containing the postmithocondrial with cytosolic and membrane-bound enzymes, 4 μM 5-FI was added and incubated at 37 °C. The interaction between the compound in the incubation mixture and the enzyme containing NADPH at 1 mg/mL concentration was measured by HPLC-MS/MS technique to determine the in vitro compound consumption by the microsomal fractions at 0, 5, 15, and 30 min reaction (incubation) time. The intrinsic compound clearance was taken as the half-life, and the disappearance was compared with the positive control, verapamil(2 μM)."}, "[5]": {"details": "SOS Chromotest ref 25; cited from earlier work"}, "[6]": {"assay": "Chemical stability at pH 1.2, 7.4 and 9.1", "format": "physicochemical", "details": "37 °C for 24 h", "protocol": "The compounds to be tested were prepared in a 100 μM solution and incubated at 37 °C for 24 h in three solutions representing the physiologically relevant pHs to drug administration: pH 1.2 (stomach), pH 7.4 (plasma), and pH 9.2 (intestinal tissue). The compounds were quantified by HPLC-MS/MS. The chemical stability experiments were carried out in triplicates to ensure reproducibility. The results were presented as percentage, comparing the signal at time zero of the assay, considering this measure 100%, with measurements after the incubation time. Alprenolol was used as the analytical control (data not shown). The results were presented as the percentage, comparing the signal at time zero of the assay (100%) with the signal produced by concentrations after the incubation period."}, "[7]": {"assay": "Cellular viability (MTT and neutral red uptake), Vero", "format": "cell-based", "details": "African green monkey, Vero cells; 72 h of exposure; MTT and neutral red assays", "protocol": "as §1, §2"}, "[8]": {"test_system": "Vero cells", "assay": "Cellular viability (MTT and neutral red uptake), Vero", "format": "cell-based", "details": "2, 5 and 20 μM, 72 h; MTT and neutral red; listed as 5-FI", "protocol": "as §1, §2"}, "[9]": {"assay": "Chemical stability in H2O at 37 °C, open and closed system (volatility assay)"}, "[10]": {"assay": "Aqueous solubility at different pHs", "format": "physicochemical", "details": "thermodynamic from solid, 25 °C for 4 h", "protocol": "The compound was weighed (1 mg) and solubilized in phosphate-buffered saline (PBS, pH 7.4), HCl 0.1 M (pH 1.2), and NH4HCO3 0.1 M (pH 9.2) to a final concentration of 1 mg/mL. The solutions were kept under stirring (250 rpm) for 4h at 37 °C. The solutions were filtered ([…] PDVA filter) and analyzed by HPLC. DMSO solution 1 mg/mL was used as the control for 100% soluble."}, "[11]": {"assay": "In vivo absorption assay: plasma concentration after gavage", "details": "400 mg/kg, mice"}, "[12]": {"assay": "Parallel artificial membrane permeability assay (PAMPA)", "format": "in vitro ADME", "details": "pH 7.4, 5 h", "protocol": "5-FI was quantified by HPLC-MS after a period of incubation and separated into two fractions by a permeable lipidic membrane. The result is expressed in velocity units of permeation (cm/s). The lipidic membrane is previously prepared with specific activation solutions that create a hydrophobic surface, simulating the intestinal epithelial tissue. To the donor aqueous phase (pH 7.4), 100 μM compound is added. To the previously prepared membrane is added the receptor aqueous phase (pH 7.4), and the mixture is incubated for 5h at room temperature with both receptor and donor aqueous phases in contact, separated just by the membrane. The compound transported by passive diffusion is measured by taking an aliquot of receptor solution and analyzing it by HPLC-MS/MS."}}, "note": "“Also recorded” adds a separate entry of the source. Where two headings read alike, the source gives them in different places.", "data": [{"smiles": "Fc1ccc2[nH]ccc2c1", "note": "[Compound 1, 5-Fluoroindole]", "values": [{"measurement": "CC50 at 72 h", "setting": "[1]", "result": "> 20", "unit": "µM"}, {"measurement": "cell viability / cytotoxicity in HepG2 (in words)", "setting": "[2]", "result": "not altered; also recorded: no cytotoxicity; also recorded: low cytotoxicity"}, {"measurement": "MIC", "setting": "[3]; most frequent value of three independent assays", "result": 4.7, "unit": "µM"}, {"measurement": "MIC", "setting": "[3]; Mycobacterium tuberculosis, H37RV", "result": 0.63, "unit": "µg/mL"}, {"measurement": "CLint scaled", "setting": "[4]; pH 7.4, read-out: metabolic stability Clint (intrinsic clearance)", "result": 9, "unit": "mL/min/kg"}, {"measurement": "half-life", "setting": "[4]; pH 7.4, read-out: metabolic stability t1/2 (half-life)", "result": 2.4, "unit": "h"}, {"measurement": "genotoxicity", "setting": "[5]", "result": "does not exhibit genotoxicity"}, {"measurement": "chemical stability pH 1.2", "setting": "[6]; 0.1 M HCl", "result": 37.2, "unit": "%"}, {"measurement": "chemical stability pH 9.1", "setting": "[6]; 0.1 M NH4HCO3, listed as 5-FI", "result": 99.2, "unit": "%"}, {"measurement": "chemical stability pH 7.4", "setting": "[6]; PBS, listed as 5-FI", "result": 58.5, "unit": "%"}, {"measurement": "CC50 at 72 h", "setting": "[7]", "result": "> 20", "unit": "µM"}, {"measurement": "cell viability / cytotoxicity in Vero (in words)", "setting": "[8]", "result": "not altered; also recorded: no cytotoxicity; also recorded: low cytotoxicity"}, {"measurement": "chemical stability, closed system", "setting": "[9]; 0 h", "result": "100 ± 0.0", "unit": "%"}, {"measurement": "chemical stability, open system", "setting": "[9]; 0 h", "result": "100 ± 0.0", "unit": "%"}, {"measurement": "chemical stability, closed system", "setting": "[9]; 1 h", "result": "97.5 ± 0.1", "unit": "%"}, {"measurement": "chemical stability, open system", "setting": "[9]; 1 h", "result": "97.5 ± 0.2", "unit": "%"}, {"measurement": "chemical stability, closed system", "setting": "[9]; 2 h", "result": "95.2 ± 0.0", "unit": "%"}, {"measurement": "chemical stability, open system", "setting": "[9]; 2 h", "result": "95.4 ± 0.2", "unit": "%"}, {"measurement": "chemical stability, closed system", "setting": "[9]; 4 h", "result": "93.3 ± 0.1", "unit": "%"}, {"measurement": "chemical stability, closed system", "setting": "[9]; 6 h", "result": "87.8 ± 0.0", "unit": "%"}, {"measurement": "chemical stability, open system", "setting": "[9]; 6 h", "result": "88.9 ± 0.2", "unit": "%"}, {"measurement": "chemical stability, closed system", "setting": "[9]; 24 h", "result": "86.1 ± 0.0", "unit": "%"}, {"measurement": "chemical stability, open system", "setting": "[9]; 24 h", "result": "89.1 ± 0.2", "unit": "%"}, {"measurement": "chemical stability, closed system", "setting": "[9]; 48 h", "result": "80.3 ± 0.1", "unit": "%"}, {"measurement": "chemical stability, open system", "setting": "[9]; 48 h", "result": "85.5 ± 0.1", "unit": "%"}, {"measurement": "solubility at 4 h", "setting": "[10]; pH 1.2, simulated gastric fluid, 0.1 M HCl, read-out: aqueous solubility pH 1.2", "result": "> 550", "unit": "µM"}, {"measurement": "solubility at 4 h", "setting": "[10]; pH 9.1, aqueous buffer, 0.1 M NH4HCO3, read-out: aqueous solubility pH 9.1", "result": 2.2, "unit": "µM"}, {"measurement": "solubility at 4 h", "setting": "[10]; phosphate-buffered saline, pH 7.4, aqueous buffer, PBS, read-out: aqueous solubility pH 7.4", "result": 3.5, "unit": "µM"}, {"measurement": "concentration at 15 min", "setting": "[11]; female, CF-1, mouse, in vivo, plasma concentration, mean ± SD, gavage 400 mg/kg, 15 min", "result": "45.2 ± 14.8", "unit": "µM"}, {"measurement": "concentration at 30 min", "setting": "[11]; female, CF-1, mouse, in vivo, plasma concentration, mean ± SD, gavage 400 mg/kg", "result": "79.4 ± 19.4", "unit": "µM"}, {"measurement": "concentration at 30 min", "setting": "[11]; female, CF-1, mouse, in vivo, po, plasma concentrations (range), oral 400 mg/kg, joint range over 5-FI and 5-FI.HCl", "result": "79 to 82", "unit": "µM"}, {"measurement": "plasma concentrations (range)", "setting": "[11]; gavage 400 mg/kg, joint range over 5-FI and 5-FI.HCl, 15 and 30 min, listed as 5-FI", "result": "32.6 to 82.3", "unit": "µM"}, {"measurement": "Papp at 5 h, 100 μM", "setting": "[12]", "result": 2.4, "unit": "×10⁻⁶ cm/s"}]}]}
